Laboratory results from PMC3961306, “Comparison of the Cancer Gene Targeting and Biochemical Selectivities of All Targeted Kinase Inhibitors Approved for Clinical Use” (PLoS ONE, 2014).
pIC50: −log10 of the molar value. Read-outs that look alike come from different tables or passages of the source. One block for each molecule: values may come before it.

Tested on: forty-four human cancer cell lines
Assay: Cell proliferation assay (ATPlite, 72 hours) in the 44 cell line Oncolines panel
Format: cell-based
Conditions: for pIC50: Homo sapiens
[1] = 769-P, cell line 769-P, read-out: cell panel IC50, 769-P
[2] = 786-0, cell line 786-0, read-out: cell panel IC50, 786-0
[3] = A 172, read-out: cell panel IC50, A-172, cell line A-172
[4] = A204, cell line A-204, read-out: cell panel IC50, A-204
[5] = A498, read-out: cell panel IC50, A-498, cell line A-498
[6] = A549, read-out: cell panel IC50, A-549, cell line A-549
[7] = A-375, cell line A375, read-out: cell panel IC50, A375
[8] = A-427, read-out: cell panel IC50, A-427, cell line A-427
[9] = ACHN, cell line ACHN, read-out: cell panel IC50, ACHN
[10] = AN3-CA, cell line AN3 CA, read-out: cell panel IC50, AN3 CA
[11] = AU565, read-out: cell panel IC50, AU-565, cell line AU-565
[12] = BT-20, cell line BT-20, read-out: cell panel IC50, BT-20
[13] = BT-549, read-out: cell panel IC50, BT-549, cell line BT-549
[14] = BXPC-3, cell line BxPC-3, read-out: cell panel IC50, BxPC-3
[15] = C-33-A, cell line C-33 A, read-out: cell panel IC50, C-33 A
[16] = CAL-27, cell line CAL 27, read-out: cell panel IC50, CAL 27
[17] = CCRF-CEM, cell line CCRF-CEM, read-out: cell panel IC50, CCRF-CEM
[18] = DLD-1, cell line DLD-1, read-out: cell panel IC50, DLD-1
[19] = FaDu, cell line FaDu, read-out: cell panel IC50, FaDu
[20] = HCT-15, cell line HCT-15, read-out: cell panel IC50, HCT-15
[21] = HCT-116, read-out: cell panel IC50, HCT-116, cell line HCT-116
[22] = Hs-578T, cell line Hs 578T, read-out: cell panel IC50, Hs 578T
[23] = Jurkat E6.1, cell line Jurkat E6.1, read-out: cell panel IC50, Jurkat E6.1
[24] = K562, read-out: cell panel IC50, K-562, cell line K-562
[25] = LS174T, read-out: cell panel IC50, LS 174T, cell line LS 174T
[26] = LoVo, cell line LoVo, read-out: cell panel IC50, LoVo
[27] = MG-63, cell line MG-63, read-out: cell panel IC50, MG-63
[28] = MOLT-4, cell line MOLT-4, read-out: cell panel IC50, MOLT-4
[29] = MeWo, cell line MeWo, read-out: cell panel IC50, MeWo
[30] = NCI-H82, cell line NCI-H82, read-out: cell panel IC50, NCI-H82
[31] = NCI-H460, cell line NCI-H460, read-out: cell panel IC50, NCI-H460
[32] = OVCAR-3, cell line OVCAR-3, read-out: cell panel IC50, OVCAR-3
[33] = RPMI-7951, cell line RPMI-7951, read-out: cell panel IC50, RPMI-7951
[34] = SHP77, cell line SHP-77, read-out: cell panel IC50, SHP-77
[35] = SK-N-AS, cell line SK-N-AS, read-out: cell panel IC50, SK-N-AS
[36] = SW48, cell line SW48, read-out: cell panel IC50, SW48
[37] = SW480, cell line SW480, read-out: cell panel IC50, SW480
[38] = SW-620, cell line SW620, read-out: cell panel IC50, SW620
[39] = U2OS, cell line U-2 OS, read-out: cell panel IC50, U-2 OS
[40] = U-87 MG, 72 h, U-87 MG cell line, ATPlite, 72 hours, read-out: IC50 in cell proliferation assay (table S5 cellpanel data)
[41] = cell line J82, read-out: cell panel IC50, J82
[42] = cell line PA-1, read-out: cell panel IC50, PA-1
[43] = cell line SJCRH30, read-out: cell panel IC50, SJCRH30
[44] = cell line SR, read-out: cell panel IC50, SR

- Difference between the average IC50 in the cell panel and the most potent IC50 (44 cell line panel, Figure 2D): 10 fold
- pIC50 [1]: 7.74
- pIC50 [2]: 7.82
- pIC50 [3]: 8.33
- pIC50 [4]: 5.68
- pIC50 [5]: 8.22
- pIC50 [6]: 8.05
- pIC50 [7]: 7.89
- pIC50 [8]: 7.96
- pIC50 [9]: 8.00
- pIC50 [10]: 7.89
- pIC50 [11]: 7.74
- pIC50 [12]: 7.19
- pIC50 [13]: 6.61
- pIC50 [14]: 7.55
- pIC50 [15]: 7.85
- pIC50 [16]: 8.22
- pIC50 [17]: 8.00
- pIC50 [18]: 7.72
- pIC50 [19]: 7.68
- pIC50 [20]: 7.51
- pIC50 [21]: 6.66
- pIC50 [22]: 8.28
- pIC50 [23]: 7.74
- pIC50 [24]: 7.80
- pIC50 [25]: 8.00
- pIC50 [26]: 8.22
- pIC50 [27]: 8.25
- pIC50 [28]: 8.10
- pIC50 [29]: 7.96
- pIC50 [30]: 7.55
- pIC50 [31]: 7.07
- pIC50 [32]: 7.10
- pIC50 [33]: 8.15
- pIC50 [34]: 7.18
- pIC50 [35]: 8.22
- pIC50 [36]: 8.00
- pIC50 [37]: > 8.50
- pIC50 [38]: 8.40
- pIC50 [39]: 7.28
- pIC50 [40]: 8.00
- pIC50 [41]: 7.96
- pIC50 [42]: 8.32
- pIC50 [43]: 7.57
- pIC50 [44]: 7.92
Compound: CC(C)C[C@H](NC(=O)[C@H](Cc1ccccc1)NC(=O)c1cnccn1)B(O)O [bortezomib]

- pIC50 [1]: 6.09
- pIC50 [2]: 5.43
- pIC50 [3]: 4.96
- pIC50 [4]: 6.19
- pIC50 [5]: 6.00
- pIC50 [6]: 6.07
- pIC50 [7]: 6.40
- pIC50 [8]: 6.46
- pIC50 [9]: 5.93
- pIC50 [10]: 5.50
- pIC50 [11]: 6.00
- pIC50 [12]: 5.13
- pIC50 [13]: 5.93
- pIC50 [14]: 4.97
- pIC50 [15]: 6.42
- pIC50 [16]: 6.28
- pIC50 [17]: 6.97
- pIC50 [18]: 5.25
- pIC50 [19]: 5.87
- pIC50 [20]: 5.81
- pIC50 [21]: 6.18
- pIC50 [22]: 5.40
- pIC50 [23]: 6.62
- pIC50 [24]: 5.94
- pIC50 [25]: 6.66
- pIC50 [26]: 6.13
- pIC50 [27]: 5.68
- pIC50 [28]: 7.24
- pIC50 [29]: 5.28
- pIC50 [30]: 6.00
- pIC50 [31]: 6.48
- pIC50 [32]: 4.65
- pIC50 [33]: 6.15
- pIC50 [34]: < 4.50
- pIC50 [35]: 5.86
- pIC50 [36]: 6.69
- pIC50 [37]: 5.33
- pIC50 [38]: 5.38
- pIC50 [39]: 5.48
- pIC50 [40]: 4.53
- pIC50 [41]: 5.31
- pIC50 [42]: 7.08
- pIC50 [43]: 5.99
- pIC50 [44]: 7.33
Compound: COc1cc([C@@H]2c3cc4c(cc3[C@@H](O[C@@H]3O[C@@H]5CO[C@@H](C)O[C@H]5[C@H](O)[C@H]3O)[C@H]3COC(=O)[C@H]23)OCO4)cc(OC)c1O [etoposide]
